This note sets out measurements from patent US20230167073A1 (Teijin Pharma Limited, priority 2020, published 2023).

In this assay the target is T1, Human TRPC6 (Homo sapiens, UniProt Q9Y210).
T1 construct: expressed in transfected cells
T1 sequence (Q9Y210 1-931): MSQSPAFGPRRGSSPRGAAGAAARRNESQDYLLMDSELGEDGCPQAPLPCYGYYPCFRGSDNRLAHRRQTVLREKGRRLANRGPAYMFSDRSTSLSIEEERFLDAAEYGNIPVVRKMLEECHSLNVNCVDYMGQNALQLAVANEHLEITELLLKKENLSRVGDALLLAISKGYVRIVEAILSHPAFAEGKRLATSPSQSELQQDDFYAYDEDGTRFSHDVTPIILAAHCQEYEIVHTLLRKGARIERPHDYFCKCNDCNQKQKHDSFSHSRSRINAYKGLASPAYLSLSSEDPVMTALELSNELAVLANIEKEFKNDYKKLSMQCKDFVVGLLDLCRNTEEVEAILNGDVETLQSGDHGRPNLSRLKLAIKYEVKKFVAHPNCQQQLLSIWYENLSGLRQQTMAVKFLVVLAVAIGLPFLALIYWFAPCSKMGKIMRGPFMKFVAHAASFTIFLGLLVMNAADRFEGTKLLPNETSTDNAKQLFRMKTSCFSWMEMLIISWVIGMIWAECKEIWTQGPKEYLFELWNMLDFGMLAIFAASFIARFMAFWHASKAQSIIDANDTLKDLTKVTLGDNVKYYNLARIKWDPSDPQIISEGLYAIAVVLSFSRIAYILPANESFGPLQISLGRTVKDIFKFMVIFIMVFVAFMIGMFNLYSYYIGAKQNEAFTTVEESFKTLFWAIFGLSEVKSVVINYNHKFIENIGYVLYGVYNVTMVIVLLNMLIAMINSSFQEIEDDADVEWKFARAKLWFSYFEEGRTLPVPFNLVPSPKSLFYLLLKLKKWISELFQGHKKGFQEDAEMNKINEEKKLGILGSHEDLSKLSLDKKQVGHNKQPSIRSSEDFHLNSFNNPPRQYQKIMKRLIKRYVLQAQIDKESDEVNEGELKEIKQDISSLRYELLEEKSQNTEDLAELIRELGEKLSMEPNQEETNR
Nature of the assay: Evaluation of TRPC6 channel inhibitory activity (1), FLIPR Calcium 5 Assay Kit, OAG stimulation (Compound Nos. 1-1293). Type of assay: cell-based. The settings on record: Human TRPC6 stably-expressing cells, OAG 30 μM, FLIPR Calcium 5 Assay Kit; read-out: Inhibitory activity (pIC50 class) (converted). As for the experimental part: Evaluation of TRPC6 Channel Inhibitory Activity (1) (Compound Nos. 1-1293)
In order to investigate TRPC6 channel inhibitory activity of the compounds, evaluation was conducted using FLIPR® Calcium 5 Assay Kit (Molecular Devices) in accordance with the following procedure. Human TRPC6 stably-expressing cells were seeded in a 384-well black clear bottom plate at a density of 5×10^3/well and cultured in an incubator at 37° C. 5% CO2 for 24 hours. Thereafter, 25 μL of a Non Wash Dye Solution, prepared using Component A, 20 mM HEPES-HBSS and 250 mM probenecid, all of which are included in the kit, was added to each well, and the plate was incubated for 30 minutes. A volume of 12.5 μL of a compound solution was added into each well while the fluorescence was measured with FLIPR tetra. After 20 minutes, 12.5 μL of a 1-oleoyl-2-acetyl glycerol (OAG) solution was added at a final concentration of 30 μM. The difference between the minimum fluorescence intensity before the addition of the compound and the maximum fluorescence intensity after the addition of OAG was defined as a signal. An inhibition rate was calculated, assuming the average signal of wells without the compound as the inhibition rate of 0% and the average signal of wells without the compound and OAG as the inhibition rate of 100%. The calculated inhibition rate was analyzed by a four-parameter logistic regression to quantify the inhibition rate in the logarithm of the inverse of the effective concentration which gives a 50% inhibition rate (pIC50). The intensity was expressed by the following symbols (+, ++, +++).
Take `Cc1nc(C2CCOCC2)cn1Cc1cc(C#N)ccc1-c1ncc(CN)cn1` [compound 1164, 4-[5-(aminomethyl)pyrimidin-2-yl]-3-[[2-methyl-4-(oxan-4-yl)imidazol-1-yl]methyl]benzonitrile]: the IC50 was 0.01 to 1 µM.

As to `CC(C)c1nc(Oc2cc(C#N)ccc2-c2ncc(CN)cn2)n(C)n1` [compound 814, 4-[5-(aminomethyl)pyrimidin-2-yl]-3-[(2-methyl-5-propan-2-yl-1,2,4-triazol-3-yl)oxy]benzonitrile], the IC50 is over 1 µM.

Consider `Cc1cccc(-c2cc(Oc3cc(C#N)ccc3-n3cc([C@@H](O)CN)cn3)nc(C)n2)c1` [Compound 205, 4-[4-[(1R)-2-amino-1-hydroxyethyl]pyrazol-1-yl]-3-[2-methyl-6-(3-methylphenyl)pyrimidin-4-yl]oxybenzonitrile], for which the IC50 was under 0.01 µM.

In the case of `Cc1nc(Oc2cc(F)ccc2-c2ncc(CN)cn2)cc(N2CCOCC2)n1` [compound 1002, [2-[4-fluoro-2-(2-methyl-6-morpholin-4-ylpyrimidin-4-yl)oxyphenyl]pyrimidin-5-yl]methanamine], the IC50 was over 1 µM.

On to `Cc1nc(Oc2cc(C#N)ccc2-c2ncc(CCN)cn2)cc(O[C@H]2CCOC2)n1` [compound 888, 4-[5-(2-aminoethyl)pyrimidin-2-yl]-3-[2-methyl-6-[(3S)-oxolan-3-yl]oxypyrimidin-4-yl]oxybenzonitrile], for which the IC50 was 0.01 to 1 µM.

For the compound `CCN(C)c1cc(Oc2cc(C#N)ccc2-c2ncc(CN)cn2)nc(C)n1` [compound 790, 4-[5-(aminomethyl)pyrimidin-2-yl]-3-[6-[ethyl(methyl)amino]-2-methylpyrimidin-4-yl]oxybenzonitrile], the IC50 was 0.01 to 1 µM.

Turning to `Cc1nc(Oc2cc(C#N)ccc2-n2cc([C@@H](O)CN)cn2)cc(-c2ccccc2)n1` [Compound 170, 4-[4-[(1R)-2-Amino-1-hydroxyethyl]pyrazol-1-yl]-3-(2-methyl-6-phenylpyrimidin-4-yl)oxybenzonitrile], the IC50 is under 0.01 µM.

For the compound `CC(C)(C)CCOc1cc(Oc2cc(C#N)ccc2-c2ccc(CCN)cc2)cnn1` [Compound 126, 4-[4-(2-aminoethyl)phenyl]-3-[6-(3,3-dimethylbutoxy)pyridazin-4-yl]oxybenzonitrile], the IC50 is over 1 µM.

As to `CC(C)c1cc(Oc2cc(C#N)ccc2-c2ccc(CCN)cn2)n(C)n1` [Compound 229, 4-[5-(2-aminoethyl)pyridin-2-yl]-3-(2-methyl-5-propan-2-ylpyrazol-3-yl)oxybenzonitrile], the IC50 was under 0.01 µM.

Take `COC(C)c1cn(Cc2cc(C#N)ccc2-c2ccc(CCN)cn2)c(C)n1` (stereo not drawn) [compound 1140, 4-[5-(2-aminoethyl)pyridin-2-yl]-3-[[4-(1-methoxyethyl)-2-methylimidazol-1-yl]methyl]benzonitrile]: the IC50 is 0.01 to 1 µM.

Regarding `Cc1nc(Oc2cc(C#N)ccc2-c2ncc(CCN)cn2)cc(N2CC(F)C2)n1` [compound 858, 4-[5-(2-aminoethyl)pyrimidin-2-yl]-3-[6-(3-fluoroazetidin-1-yl)-2-methylpyrimidin-4-yl]oxybenzonitrile], the IC50 is 0.01 to 1 µM.

Turning to `N#Cc1ccc(-c2ccc(CCN)cn2)c(Cn2cnc(-c3ccccn3)c2)c1` [compound 1160, 4-[5-(2-aminoethyl)pyridin-2-yl]-3-[(4-pyridin-2-ylimidazol-1-yl)methyl]benzonitrile], the IC50 is over 1 µM.

On to `Cc1c(Oc2cc(C#N)ccc2-c2ncc(CCN)cn2)cnn1CC(F)(F)F` [compound 836, 4-[5-(2-aminoethyl)pyrimidin-2-yl]-3-[5-methyl-1-(2,2,2-trifluoroethyl)pyrazol-4-yl]oxybenzonitrile], for which the IC50 is 0.01 to 1 µM.

As to `N#Cc1ccc(-c2ncc(CN)cn2)c(Oc2cc(N3CCCC3)ncc2C#N)c1` [compound 740, 4-[2-[5-(aminomethyl)pyrimidin-2-yl]-5-cyanophenoxy]-6-pyrrolidin-1-ylpyridine-3-carbonitrile], the IC50 was over 1 µM.

With `N#Cc1ccc(-c2ncc(CCN)cn2)c(Oc2cc(N3CCCC3)ncc2C#N)c1` [compound 739, 4-[2-[5-(2-aminoethyl)pyrimidin-2-yl]-5-cyanophenoxy]-6-pyrrolidin-1-ylpyridine-3-carbonitrile], the IC50 was 0.01 to 1 µM.

Turning to `Cc1nc(-c2cncc(F)c2)cn1Cc1cc(C#N)ccc1-c1ccc(CCN)cn1` [compound 1193, 4-[5-(2-aminoethyl)pyridin-2-yl]-3-[[4-(5-fluoropyridin-3-yl)-2-methylimidazol-1-yl]methyl]benzonitrile], the IC50 was 0.01 to 1 µM.

For `N#Cc1ccc(-n2cc(CCN)cn2)c(Oc2cnnc(N3CCOCC3)c2)c1` [Compound 282, 4-[4-(2-aminoethyl)pyrazol-1-yl]-3-(6-morpholin-4-ylpyridazin-4-yl)oxybenzonitrile], the IC50 was 0.01 to 1 µM.

Consider `N#Cc1ccc(-c2ncc(CCN)cn2)c(Oc2cnnc(N3CCOCC3)c2)c1` [compound 620, 4-[5-(2-aminoethyl)pyrimidin-2-yl]-3-(6-morpholin-4-ylpyridazin-4-yl)oxybenzonitrile], for which the IC50 was 0.01 to 1 µM.

For `Cn1nc(C2CC2)cc1Oc1cc(C#N)ccc1-c1cc(C(O)CN)c(Cl)cn1` (stereo not drawn) [compound 518, 4-[4-(2-amino-1-hydroxyethyl)-5-chloropyridin-2-yl]-3-(5-cyclopropyl-2-methylpyrazol-3-yl)oxybenzonitrile], the IC50 was 0.01 to 1 µM.

As to `Cc1nc(Sc2cc(C#N)ccc2-c2ccc(CCN)cn2)cc(N2CCOCC2)n1` [compound 1248, 4-[5-(2-aminoethyl)pyridin-2-yl]-3-(2-methyl-6-morpholin-4-ylpyrimidin-4-yl)sulfanylbenzonitrile], the IC50 was 0.01 to 1 µM.

Take `N#Cc1ccc(-c2ncc(CN)cn2)c(Oc2cnnc(-c3ccccn3)c2)c1` [compound 817, 4-[5-(aminomethyl)pyrimidin-2-yl]-3-(6-pyridin-2-ylpyridazin-4 yl)oxybenzonitrile]: the IC50 is over 1 µM.

On to `COC(C)(C)CN(C)c1cc(Oc2cc(C#N)ccc2-c2ncc(CN)cn2)n(C)n1` [compound 867, 4-[5-(aminomethyl)pyrimidin-2-yl]-3-[5-[(2-methoxy-2-methylpropyl)-methylamino]-2-methylpyrazol-3-yl]oxybenzonitrile], for which the IC50 is over 1 µM.

With `CC(C)CNc1cc(Sc2cc(C#N)ccc2-c2ncc(CN)cn2)cnn1` [compound 1273, 4-[5-(aminomethyl)pyrimidin-2-yl]-3-[6-(2-methylpropylamino)pyridazin-4-yl]sulfanylbenzonitrile], the IC50 was 0.01 to 1 µM.

In the case of `Cc1nc(OCC(F)(F)F)cc(Oc2cc(C#N)ccc2-c2ncc(CN)cn2)n1` [compound 893, 4-[5-(aminomethyl)pyrimidin-2-yl]-3-[2-methyl-6-(2,2,2-trifluoroethoxy)pyrimidin-4-yl]oxybenzonitrile], the IC50 is over 1 µM.

Regarding `Cn1nc(-c2ccc(F)cc2)cc1Oc1cc(C#N)ccc1-c1ccc(C(O)CN)cc1` (stereo not drawn) [Compound 183, 4-[4-(2-amino-1-hydroxyethyl)phenyl]-3-[5-(4-fluorophenyl)-2-methylpyrazol-3-yl]oxybenzonitrile], the IC50 is under 0.01 µM.

Regarding `Cn1nc(-c2ccccn2)cc1Oc1cc(C#N)ccc1-c1ncc(CN)cn1` [compound 394, 4-[5-(aminomethyl)pyrimidin-2-yl]-3-(2-methyl-5-pyridin-2-ylpyrazol-3-yl)oxybenzonitrile], the IC50 is under 0.01 µM.

In the case of `Cc1ccc(-c2cn(Cc3cc(C#N)ccc3-c3ccc(CCN)cn3)cn2)cc1` [compound 1146, 4-[5-(2-aminoethyl)pyridin-2-yl]-3-[[4-(4-methylphenyl)imidazol-1-yl]methyl]benzonitrile], the IC50 is 0.01 to 1 µM.
